# Patent US9078907B2, “Immunoregulator compounds” (Universita Degli Studi Di Roma “Tor Vergata”, priority 2001, dated 2015)
# Key:
# Mycobacterium smegmatis = assay: Colony forming units of M. smegmatis in differentiated THP-1 cells; assay type: cell-based; details: THP-1, M. smegmatis, S1P 5 μM; ethanol 0.3%, 0.03%, 0.003% (dose dependent) or calphostin C 10 nM
# Procedure: Human monocytic THP-1 leukemia line cells were used in this example as a model for macrophage response. In order to obtain macrophage phenotype, 5×10^5/ml THP-1 cells were induced to differentiate by 48 hours incubation in the presence of 20 ng/ml Phorbol Myristate Acetate (PMA). Differentiated THP-1 cells (dTHP-1) were then centrifuged three times and suspended in complete medium [RPMI 1640 (Gibco BRL) supplemented with 10% fetal bovine serum (Gibco BRL), 5 mM L-glutamine (Invitrogen), 1 mM sodium pyruvate (Gibco BRL) and non-essential amino acids (Euroclone)]. dTHP-1 were then infected for 3 hours with M. smegmatis at the multiplicity of infection of bacterium/cell 50:1. Following infection cells were washed three times with RPMI 1640 and incubated in complete medium at 37° C. for further 1, 12 and 24 hours in the presence or absence of sphingosine-1 phosphate used at the concentration of 5 μM.
# In order to assess the role of macrophage PLD activity in sphingosine 1-phosphate induced mycobacterial growth control, following the infection the cells were cultured in the presence of various concentrations of ethanol (0.3%, 0.03%, 0.003%) or 10 nM calphostin C. […] Inhibiting activity of calphostin C is exploited by targeting PLD catalytic domain (Sciorra V. A., Hammond S. M., Morris A. J. Potent direct inhibition of mammalian phospholipase D isoenzymes by calphostin c. Biochemistry 2001; 40: 2640-46). Just after the infection and at the indicated time points, cells were 1) lysed using cold PBS containing 0.1% saponin (Sigma, MA, USA), ii) serially diluted in PBS containing 0.01% Tween-80 (Merck, Darmstadt, Germany) and iii) plated in triplicate in Middlebrook 7H10 medium (Becton Dickinson, MD, USA) supplemented with 10% OADC formulation (0.5 mg/ml oleic acid, 50 mg/ml albumin, 20 mg/ml dextrose, 0.04 mg/ml catalase and 8.5 mg/ml sodium chloride). M. smegmatis colonies were enumerated after incubation for 3 days at 37° C.
# macrophages = assay: ROI generation by dichlorofluorescein (DCF) flow cytometry; assay type: cell-based, human; details: lipopolysaccharide stimulated cells, positive control
# Procedure: Because dichloro fluorescein (DCF) is a fluorochrome obtained from reaction of non fluorescent 2, 7-dichloro fluorescein diacetate (DCFH) with various oxidants, analysis thereof is used to detect cellular oxidative stress and amount of oxygen reactive intermediates (ROI) produced by phagocytic cells. In the used model, this analysis is employed in order to monitor the D-erythro-sphingosine 1-phosphate (S1P) modulated ROI production from macrophages. Macrophages were incubated for 90 minutes with sphingosine 1-phosphate at 0.5 μM, 5 μM, 10 μM and 50 μM concentrations. After the incubation 100 μl of 0.4 μM DCFH (Calbiochem) were added and incubated for at least 30 minutes. Finally, cells were washed with PBS and analysed using FACScan flow cytometer from Becton Dickinson.
# macrophage PLD = assay type: cell-based, human
compound,measurement,setting,value
CCO [ethanol],mycobacterial replication after PLD inhibitor treatment of S1P treated cells,Mycobacterium smegmatis,increase
lipopolysaccharides [reference compound],DCF positive cells after stimulation,macrophages,increase
calphostin C,mycobacterial replication after PLD inhibitor treatment of S1P treated cells,Mycobacterium smegmatis,increase
IFN-γ,effect of IFN-γ pre-treatment on PLD activity of infected macrophages,macrophage PLD,does not modify
same,effect of IFN-γ treatment before and/or after infection on levels of macrophage PLD activity,macrophage PLD,does not appear to modify
